Calls of active or inactive are those of the source. The calls are words filed in the database; no cut-off is given here. Peptide text beside a SMILES is read from it.
What was measured:
[1] = system: SMMC-7721; assay: Antiproliferative activity against human SMMC7721 cells after 24 hrs by MTT assay; type: functional, cell-based; conditions: SMMC-7721, 24 h
[2] = system: HepG2; assay: Antiproliferative activity against human HepG2 cells after 24 hrs by MTT assay; type: functional, cell-based; conditions: HepG2, 24 h
[3] = system: Mus musculus; assay: Toxicity in Balb/c nude mouse xenografted with human SMMC7721 cells assessed as body weight level at 40 mg/kg, ip for 32 days (reference value: 25.4 +/- 1.8 g); type: organism-based; conditions: in vivo, 768 h
[4] = system: Mus musculus; assay: Toxicity in Balb/c nude mouse xenografted with human SMMC7721 cells assessed as body weight level at 8 mg/kg, ip for 32 days (reference value: 25.4 +/- 1.8 g); type: organism-based; conditions: in vivo, 768 h
[5] = system: SMMC-7721; assay: Induction of apoptosis in human SMMC7721 cells assessed as early apoptotic cells at 20 uM after 24 hrs by Annexin V-FITC/propidium iodide staining based flow cytometry (reference value: 2%); type: functional
[6] = system: SMMC-7721; assay: Induction of apoptosis in human SMMC7721 cells assessed as increase in cleaved PARP protein expression after 24 hrs by Western blot method; type: functional, cell-based
[7] = system: SMMC-7721; assay: Antitumor activity against human SMMC7721 cells xenografted in Balb/c nude mouse assessed as tumor growth inhibition dosed intraperitoneally for 32 days; type: functional, organism-based
[8] = system: SMMC-7721; assay: Induction of apoptosis in human SMMC7721 cells assessed as early apoptotic cells at 10 uM after 24 hrs by Annexin V-FITC/propidium iodide staining based flow cytometry (reference value: 2%); type: functional
[9] = system: Mus musculus; assay: Toxicity in Balb/c nude mouse xenografted with human SMMC7721 cells assessed as body weight level at 16 mg/kg, ip for 32 days (reference value: 25.4 +/- 1.8 g); type: organism-based; conditions: in vivo, 768 h
[10] = system: SMMC-7721; assay: Cell cycle arrest in human SMMC7721 cells assessed as G2/M phase accumulation at 20 uM after 24 hrs by propidium iodide staining based flow cytometry relative to control; type: functional
[11] = system: SMMC-7721; assay: Antitumor activity against human SMMC7721 cells xenografted in Balb/c nude mouse assessed as tumor growth inhibition at 16 mg/kg, ip for 32 days relative to control; type: functional; conditions: SMMC-7721, ip, 768 h, read-out: TGI
[12] = system: SMMC-7721; assay: Induction of apoptosis in human SMMC7721 cells assessed as increase in cleaved caspase-8 protein expression after 24 hrs by Western blot method; type: functional, cell-based
[13] = system: SMMC-7721; assay: In vivo induction of apoptosis in human SMMC7721 cells xenografted in Balb/c nude mouse assessed as activation of caspase-3 dosed intraperitoneally for 32 days by IHC analysis; type: functional, organism-based
[14] = system: SMMC-7721; assay: Induction of apoptosis in human SMMC7721 cells assessed as late apoptotic cells at 30 uM after 24 hrs by Annexin V-FITC/propidium iodide staining based flow cytometry (reference value: 0.7%); type: functional
[15] = system: SMMC-7721; assay: Antitumor activity against human SMMC7721 cells xenografted in Balb/c nude mouse assessed as tumor growth inhibition at 8 mg/kg, ip for 32 days relative to control; type: functional; conditions: SMMC-7721, ip, 768 h, read-out: TGI
[16] = system: SMMC-7721; assay: Induction of apoptosis in human SMMC7721 cells assessed as early apoptotic cells at 30 uM after 24 hrs by Annexin V-FITC/propidium iodide staining based flow cytometry (reference value: 2%); type: functional
[17] = system: SMMC-7721; assay: Induction of apoptosis in human SMMC7721 cells assessed as chromatin condensation at 10 to 30 uM after 24 hrs by DAPI staining based laser confocal microscopy; type: functional, cell-based
[18] = system: SMMC-7721; assay: Antitumor activity against human SMMC7721 cells xenografted in Balb/c nude mouse assessed as tumor growth inhibition at 40 mg/kg, ip for 32 days relative to control; type: functional; conditions: SMMC-7721, ip, 768 h, read-out: TGI
[19] = system: SMMC-7721; assay: Induction of apoptosis in human SMMC7721 cells assessed as late apoptotic cells at 20 uM after 24 hrs by Annexin V-FITC/propidium iodide staining based flow cytometry (reference value: 0.7%); type: functional
[20] = system: SMMC-7721; assay: Induction of apoptosis in human SMMC7721 cells assessed as increase in cleaved caspase-9 protein expression after 24 hrs by Western blot method; type: functional, cell-based
[21] = system: SMMC-7721; assay: Cell cycle arrest in human SMMC7721 cells assessed as G2/M phase accumulation at 10 uM after 24 hrs by propidium iodide staining based flow cytometry relative to control; type: functional
[22] = system: SMMC-7721; assay: Induction of apoptosis in human SMMC7721 cells assessed as late apoptotic cells at 10 uM after 24 hrs by Annexin V-FITC/propidium iodide staining based flow cytometry (reference value: 0.7%); type: functional
[23] = system: SMMC-7721; assay: Induction of morphological changes in tumor of human SMMC7721 cells xenografted Balb/c nude mouse induction of nuclei and cytoplasm non-uniform distribution at 40 mg/kg, ip for 32 days by hematoxylin/eosin staining based microscopic analysis; type: functional, organism-based
[24] = system: SMMC-7721; assay: Induction of morphological changes in tumor of human SMMC7721 cells xenografted Balb/c nude mouse assessed as appearance of shrunken nuclei at 40 mg/kg, ip for 32 days by hematoxylin/eosin staining based microscopic analysis; type: functional, organism-based
[25] = system: SMMC-7721; assay: Induction of morphological changes in tumor of human SMMC7721 cells xenografted Balb/c nude mouse assessed as reduction in number of nuclei at 40 mg/kg, ip for 32 days by hematoxylin/eosin staining based microscopic analysis; type: functional, organism-based
[26] = system: SMMC-7721; assay: In vivo induction of apoptosis in human SMMC7721 cells xenografted in Balb/c nude mouse at 8 to 40 mg/kg, ip for 32 days by TUNEL assay; type: functional, organism-based
[27] = system: SMMC-7721; assay: Cell cycle arrest in human SMMC7721 cells assessed as G2/M phase accumulation at 30 uM after 24 hrs by propidium iodide staining based flow cytometry relative to control; type: functional
[28] = system: SMMC-7721; assay: Induction of apoptosis in human SMMC7721 cells assessed as increase in cleaved caspase-3 protein expression after 24 hrs by Western blot method; type: functional, cell-based
[29] = system: SMMC-7721; assay: Cell cycle arrest in human SMMC7721 cells assessed as G2/M phase accumulation at 2.5 uM after 24 hrs by propidium iodide staining based flow cytometry relative to control; type: functional
[30] = system: SMMC-7721; assay: Induction of apoptosis in human SMMC7721 cells assessed as late apoptotic cells at 0.2 uM after 24 hrs by Annexin V-FITC/propidium iodide staining based flow cytometry (reference value: 0.7%); type: functional
[31] = system: SMMC-7721; assay: Induction of apoptosis in human SMMC7721 cells assessed as early apoptotic cells at 0.2 uM after 24 hrs by Annexin V-FITC/propidium iodide staining based flow cytometry (reference value: 2%); type: functional
[32] = system: SMMC-7721; assay: Induction of apoptosis in human SMMC7721 cells assessed as chromatin condensation at 0.2 uM after 24 hrs by DAPI staining based laser confocal microscopy; type: functional, cell-based

Structure (SMILES): CC(C)C[C@@H]1NC(=O)[C@H](C)NC(=O)[C@@H]2CCCN2C(=O)[C@H](CC(C)C)NC(=O)[C@H](C(C)C)NC(=O)[C@H](CC(C)C)NC(=O)[C@H](C(C)C)NC(=O)[C@H](CC(C)C)NC(=O)[C@H](CC(C)C)NC1=O (cyclo(ALLLVLVLP))
- IC50 [1]: 36.1 µM
- IC50 [2]: 55.6 µM

Structure (SMILES): CC[C@H](C)[C@@H]1NC(=O)[C@@H]2CCCN2C(=O)[C@H](CC(C)C)NC(=O)[C@H](C(C)C)NC(=O)[C@H](CC(C)C)NC(=O)[C@H](C(C)C)NC(=O)[C@H](CC(C)C)NC(=O)[C@H](CC(C)C)NC(=O)[C@H](C)NC1=O (cyclo(ALLVLVLPI))
- IC50 [1]: 29.8 µM
- IC50 [2]: > 100 µM

Structure (SMILES): CC[C@H](C)[C@@H]1NC(=O)[C@@H]2CCCN2C(=O)[C@H](CC(C)C)NC(=O)[C@H](C)NC(=O)[C@H](CC(C)C)NC(=O)[C@H](C(C)C)NC(=O)[C@H](CC(C)C)NC(=O)[C@H](CC(C)C)NC(=O)[C@H](CC(C)C)NC1=O (cyclo(ALPILLLVL))
- IC50 [1]: 29.9 µM
- IC50 [2]: 29.9 µM

Structure (SMILES): CC[C@H](C)[C@@H]1NC(=O)[C@@H]2CCCN2C(=O)[C@H](CC(C)C)NC(=O)[C@H](C(C)C)NC(=O)[C@H](CC(C)C)NC(=O)[C@H](C)NC(=O)[C@H](CC(C)C)NC(=O)[C@H](CC(C)C)NC(=O)[C@H](CC(C)C)NC1=O (cyclo(ALVLPILLL))
- IC50 [1]: 47.4 µM
- IC50 [2]: 40.5 µM

Structure (SMILES): CC[C@H](C)[C@@H]1NC(=O)[C@@H]2CCCN2C(=O)[C@H](CC(C)C)NC(=O)[C@H](C(C)C)NC(=O)[C@H](CC(C)C)NC(=O)[C@H](C(C)C)NC(=O)[C@H](CC(C)C)NC(=O)[C@H](C)NC(=O)[C@H](CC(C)C)NC1=O (cyclo(ALVLVLPIL))
- IC50 [1]: 42.8 µM
- IC50 [2]: > 100 µM

Structure (SMILES): CC[C@H](C)[C@@H]1NC(=O)[C@@H]2CCCN2C(=O)[C@H](C)NC(=O)[C@H](C(C)C)NC(=O)[C@H](CC(C)C)NC(=O)[C@H](C(C)C)NC(=O)[C@H](CC(C)C)NC(=O)[C@H](CC(C)C)NC(=O)[C@H](CC(C)C)NC1=O (cyclo(APILLLVLV))
- IC50 [1]: 48.5 µM
- IC50 [2]: 39.4 µM

Structure (SMILES): CC[C@H](C)[C@@H]1NC(=O)[C@@H]2CCCN2C(=O)[C@H](CC(C)C)NC(=O)[C@H](C(C)C)NC(=O)[C@H](C)NC(=O)[C@H](C(C)C)NC(=O)[C@H](CC(C)C)NC(=O)[C@H](CC(C)C)NC(=O)[C@H](CC(C)C)NC1=O (cyclo(AVLPILLLV))
- IC50 [1]: 38.9 µM
- IC50 [2]: 38.6 µM

Structure (SMILES): CC[C@H](C)[C@@H]1NC(=O)[C@@H]2CCCN2C(=O)[C@H](CC(C)C)NC(=O)[C@H](C(C)C)NC(=O)[C@H](CC(C)C)NC(=O)[C@H](C(C)C)NC(=O)[C@H](C)NC(=O)[C@H](CC(C)C)NC(=O)[C@H](CC(C)C)NC1=O (cyclo(AVLVLPILL))
- IC50 [1]: 56.1 µM
- IC50 [2]: 31.8 µM

Structure (SMILES): CC[C@H](C)[C@@H]1NC(=O)[C@@H]2CCCN2C(=O)[C@H](CC(C)C)NC(=O)[C@H](C(C)C)NC(=O)[C@H](CC(C)C)NC(=O)[C@H](C(C)C)NC(=O)[C@H](CC(C)C)NC(=O)[C@H](CC(C)C)NC(=O)[C@H](CC(C)C)NC1=O (cyclo(ILLLVLVLP))
- Activity [3]: 21.1 g
- Activity [4]: 22.2 g
- Activity [5]: 36.6 - 38.6%
- Activity [6]: Dose-dependent effect
- TGI [7]: Dose-dependent effect
- Activity [8]: 1.6 - 3.6%
- Activity [9]: 22.7 g
- Activity [10]: 9.6%
- inhibition in vivo at 16 mg/kg [11]: 57%
- Activity [12]: Dose-dependent effect
- Activity [13]: Dose-dependent effect
- Activity [14]: 2.6%
- inhibition in vivo at 8 mg/kg [15]: 26.1%
- Activity [16]: 84.5 - 86.5%
- Activity [17]: Active
- inhibition in vivo at 40 mg/kg [18]: 67.9%
- Activity [19]: 2.8%
- Activity [20]: Dose-dependent effect
- Activity [21]: 5.9%
- Activity [22]: 0.4%
- Activity [23]: Active
- IC50 [1]: 6.38 µM
- Activity [24]: Active
- IC50 [2]: 12.2 µM
- Activity [25]: Active
- Activity [26]: Dose-dependent effect
- Activity [27]: 12%
- Activity [28]: Dose-dependent effect

Structure (SMILES): CC[C@H](C)[C@@H]1NC(=O)[C@@H]2CCCN2C(=O)[C@H](CC(C)C)NC(=O)[C@H](C(C)C)NC(=O)[C@H](CC(C)C)NC(=O)[C@H](C(C)C)NC(=O)[C@H](CC(C)C)NC(=O)[C@H](CC(C)C)NC1=O (cyclo(ILLVLVLP))
- IC50 [1]: 73.9 µM
- IC50 [2]: 51.7 µM

Structure (SMILES): CC[C@H](C)[C@@H]1NC(=O)[C@@H]2CCCN2C(=O)[C@H](CC(C)C)NC(=O)[C@H](C(C)C)NC(=O)[C@H](CC(C)C)NC(=O)[C@H](C(C)C)NC(=O)[C@H](CC(C)C)NC1=O (cyclo(ILVLVLP))
- IC50 [1]: > 100 µM
- IC50 [2]: > 100 µM

Structure (SMILES): CC[C@H](C)[C@@H]1NC(=O)[C@@H]2CCCN2C(=O)[C@H](C(C)C)NC(=O)[C@H](CC(C)C)NC(=O)[C@H](C(C)C)NC1=O (cyclo(IVLVP))
- IC50 [1]: > 100 µM
- IC50 [2]: > 100 µM

Structure (SMILES): COc1cc([C@@H]2c3cc4c(cc3[C@@H](O[C@@H]3O[C@@H]5CO[C@@H](C)O[C@H]5[C@H](O)[C@H]3O)[C@H]3COC(=O)[C@H]23)OCO4)cc(OC)c1O [ETOPOSIDE]
- Activity [29]: 44.9%

Structure (SMILES): CC(=O)O[C@H]1C(=O)[C@@]2(C)[C@H]([C@H](OC(=O)c3ccccc3)[C@]3(O)C[C@H](OC(=O)[C@H](O)[C@@H](NC(=O)c4ccccc4)c4ccccc4)C(C)=C1C3(C)C)[C@]1(OC(C)=O)CO[C@@H]1C[C@@H]2O [PACLITAXEL]
- Activity [30]: 3.4%
- Activity [31]: 54.7 - 56.7%
- Activity [32]: Active

Source: ChEMBL document CHEMBL4219059, “Synthesis and biological evaluation of cyclopeptide GG-8-6 and its analogues as anti-hepatocellular carcinoma agents” (Bioorg Med Chem, 2018)
